Measurements reported in patent US20100331357A1, “PHARMACEUTICAL COMPOSITION” (TAKEDA PHARMACEUTICAL COMPANY LIMITED, priority 2008, published 2010).

Key:
Format in all cases: physicochemical
[1] = Solubility by eye observation with stepwise addition of solution; settings: thermodynamic from solid
Protocol: (§1) Each of the solutions (0.1 mL) shown in Table 1 was added to compound A1 hydrochloride (about 2 mg), and solubility was confirmed with eye observation. When insoluble materials were recognized, the solution (0.1 mL) was further added, and solubility was confirmed by eye observation in the same manner. When insoluble materials were still recognized, the solution was thereafter added in the amounts of 0.05 mL, 0.15 mL, 0.4 mL, 0.4 mL, 0.4 mL and 0.4 mL, respectively in this order, and solubility was confirmed by eye observation. The concentration of the compound A1 hydrochloride determined from the total amount of the solution added up to the time point at which insoluble materials were not recognized, was taken as the solubility.
as §1, with “Table 2” for “Table 1”
as §1, with “Table 3” for “Table 1”
as §1, with “Table 4” for “Table 1”

[2] = Saturation solubility, shaken 18 hours at 25° C., filtered, HPLC; settings: thermodynamic from solid, 40 mM Citric acid
Protocol: To each of the various solutions shown in Table 5, compound A1 hydrochloride was added in an amount exceeding the saturation concentration, and the mixture was shaken for 18 hours at 25° C.

[3] = Saturation solubility, shaken 18 hours at 5° C., filtered, HPLC; settings: thermodynamic from solid, 40 mM Citric acid, NaOH, as free form
Protocol: To each of the various solutions shown in Table 6, compound A1 hydrochloride was added in an amount exceeding the saturation concentration, and the mixture was shaken for 18 hours at 5° C.

Compound: CCS(=O)(=O)c1cccc(-c2cc(C(=O)NC3CCN(C)CC3)c(C)c3[nH]c4ncc(C)cc4c23)c1.Cl [compound A1 hydrochloride, 5-(3-(ethylsulfonyl)phenyl)-3,8-dimethyl-N-(1-methylpiperidin-4-yl)-9H-pyrido[2,3-b]indole-7-carboxamide hydrochloride]
- solubility ([1]; 5 w/v % D-mannitol in water for injection, saline or isotonic): ~1100 µg/mL
- solubility ([1]; 5 w/v % D-sorbitol in water for injection, saline or isotonic): ~1300 µg/mL
- solubility ([1]; 5 w/v % glucose in water for injection, saline or isotonic): ~1300 µg/mL
- solubility ([1]; 10 w/v % Dextran 40 in water for injection, aqueous with cosolvent or surfactant or cyclodextrin): < 1300 µg/mL
- solubility ([1]; 10 w/v % Polysorbate 20 in water for injection, aqueous with cosolvent or surfactant or cyclodextrin): ~1800 µg/mL
- solubility ([1]; 10 w/v % Polysorbate 80 in water for injection, aqueous with cosolvent or surfactant or cyclodextrin): ~2200 µg/mL
- solubility ([1]; 10 w/v % maltose in water for injection, saline or isotonic): ~1400 µg/mL
- solubility ([1]; 10 w/v % sucrose in water for injection, saline or isotonic): ~1200 µg/mL
- solubility ([1]; 30 w/v % maltosyl-β-cyclodextrin in water for injection, aqueous with cosolvent or surfactant or cyclodextrin): ~10800 µg/mL
- solubility ([1]; aqueous with cosolvent or surfactant or cyclodextrin, 30 w/v % 2-Hydroxypropyl-β-cyclodextrin in water for injection): ~10400 µg/mL
- solubility ([1]; aqueous with cosolvent or surfactant or cyclodextrin, 30 w/v % Sulfobutyl ether-β-cyclodextrin sodium salt (Captisol, clinical grade) in water for injection): ~9200 µg/mL
- solubility ([1]; citric acid buffer solution, pH 2, aqueous buffer, 100 mM Citric acid buffer solution pH 2): ~2100 µg/mL
- solubility ([1]; citric acid buffer solution, pH 3, aqueous buffer, 100 mM Citric acid buffer solution pH 3): ~1000 µg/mL
- solubility ([1]; citric acid buffer solution, pH 4, aqueous buffer, 100 mM Citric acid buffer solution pH 4): < 1300 µg/mL
- solubility ([1]; citric acid buffer solution, pH 5, aqueous buffer, 100 mM Citric acid buffer solution pH 5): < 1300 µg/mL
- solubility ([1]; citric acid buffer solution, pH 7, aqueous buffer, 100 mM Citric acid buffer solution pH 7): < 1200 µg/mL
- solubility ([1]; citric acid buffer solution, pH 9, aqueous buffer, 100 mM Citric acid buffer solution pH 9): < 1200 µg/mL
- solubility ([1]; citric acid buffer solutions, aqueous buffer, citric acid buffer solutions of Table 1): < 8000 µg/mL
- solubility ([1]; cyclodextrin derivative solutions, aqueous with cosolvent or surfactant or cyclodextrin, all cyclodextrin derivative solutions shown in Table 4): ≥ 8000 µg/mL
- solubility ([1]; ethanol, organic solvent or mixture, 100 w/v % Ethanol): < 1200 µg/mL
- solubility ([1]; polyethylene glycol 300, organic solvent or mixture, 100 w/v % Polyethylene glycol 300): < 1100 µg/mL
- solubility ([1]; polyethylene glycol 400, organic solvent or mixture, 100 w/v % Polyethylene glycol 400): < 1300 µg/mL
- solubility ([1]; solutions of solubilizers, aqueous with cosolvent or surfactant or cyclodextrin, solutions of solubilizers in Table 3): < 8000 µg/mL
- solubility ([1]; solutions of sugars, saline or isotonic, solutions of sugars in Table 2): < 8000 µg/mL
- solubility ([1]; soybean oil, oil or lipid, 100 w/v % Soybean oil): < 1200 µg/mL
- solubility ([1]; water for injection, water): < 1200 µg/mL
- solubility at 18 h ([2]; aqueous with cosolvent or surfactant or cyclodextrin, 5 w/v % Sulfobutyl ether-β-cyclodextrin sodium salt (Captisol, research grade), HCl, pH 2.5, as free form): 29200 µg/mL
- solubility at 18 h ([2]; aqueous with cosolvent or surfactant or cyclodextrin, 5 w/v % Sulfobutyl ether-β-cyclodextrin sodium salt (Captisol, research grade), NaOH, pH 4, as free form): 24500 µg/mL
- solubility at 18 h ([2]; aqueous with cosolvent or surfactant or cyclodextrin, 5 w/v % Sulfobutyl ether-β-cyclodextrin sodium salt (Captisol, research grade), NaOH, pH 5, as free form): 22900 µg/mL
- solubility at 18 h ([2]; citric acid solution in water for injection, aqueous buffer, water for injection, HCl, pH 2.5, as compound A1 (free form)): 8000 µg/mL
- solubility at 18 h ([2]; citric acid solution in water for injection, aqueous buffer, water for injection, NaOH, pH 4, as free form): 300 µg/mL
- solubility at 18 h ([2]; citric acid solution in water for injection, aqueous buffer, water for injection, NaOH, pH 5, as free form): 100 µg/mL
- solubility at 18 h ([3]; citric acid solution in water for injection, pH 4, aqueous buffer, water for injection): 100 µg/mL
- solubility at 18 h ([3]; pH 4, aqueous with cosolvent or surfactant or cyclodextrin, 2.5 w/v % Sulfobutyl ether-β-cyclodextrin sodium salt): 13000 µg/mL
- solubility at 18 h ([3]; pH 4, aqueous with cosolvent or surfactant or cyclodextrin, 5 w/v % Sulfobutyl ether-β-cyclodextrin sodium salt): 20900 µg/mL
- solubility at 18 h ([3]; pH 4, aqueous with cosolvent or surfactant or cyclodextrin, 7.5 w/v % Sulfobutyl ether-β-cyclodextrin sodium salt): 27600 µg/mL
- solubility at 18 h ([3]; pH 4, aqueous with cosolvent or surfactant or cyclodextrin, 10 w/v % Sulfobutyl ether-β-cyclodextrin sodium salt): 32800 µg/mL
- solubility at 18 h ([3]; pH 4, aqueous with cosolvent or surfactant or cyclodextrin, 12 w/v % Sulfobutyl ether-β-cyclodextrin sodium salt): 35400 µg/mL
- solubility at 18 h ([3]; pH 4, aqueous with cosolvent or surfactant or cyclodextrin, 20 w/v % Sulfobutyl ether-β-cyclodextrin sodium salt): 43600 µg/mL
- solubility at 18 h ([3]; pH 4, aqueous with cosolvent or surfactant or cyclodextrin, 30 w/v % Sulfobutyl ether-β-cyclodextrin sodium salt): 49900 µg/mL
